# Laboratory results from patent publication US9090570B2, “Compounds for inflammation and immune-related uses” (Synta Pharmaceuticals Corp., priority 2005, dated 2015).
# Counter-ions that a name gives are not always drawn.
# Tested on: IL-2 production
# Experiment: Inhibition of IL-2 production in PHA-activated Jurkat cells (ELISA)
# Assay type: cell-based
# Details: Homo sapiens, Jurkat, 20 h, PHA 2.5 μg/mL, IL-2 ELISA
# Description: Jurkat cells were placed in a 96 well plate (0.5 million cells per well in 1% FBS medium) then a test compound of this invention was added at different concentrations. After 10 minutes, the cells were activated with PHA (final concentration 2.5 μg/mL) and incubated for 20 hours at 37° C. under CO2. The final volume was 200 μL. Following incubation, the cells were centrifuged and the supernatants collected and stored at −70° C. prior to assaying for IL-2 production. A commercial ELISA kit (IL-2 Eli-pair, Diaclone Research, Besancon, France) was used to detect production of IL-2, from which dose response curves were obtained. The IC50 value was calculated as the concentration at which 50% of maximum IL-2 production after stimulation was inhibited versus a non-stimulation control.
row,Structure (SMILES),IC50
1,"O=C(Nc1cnc(-c2cc(C(F)(F)F)ccc2Cl)cn1)c1c(F)cccc1F [Compound 4, N-[5-(2-Chloro-5-trifluoromethyl-phenyl)-pyrazin-2-yl]-2,6-difluoro-benzamide hydrochloride]",6 nM

# Same assay, conditions: Homo sapiens, PHA 2.5 μg/mL, 20 hours, IL-2 ELISA
row,Structure (SMILES),IC50
1,"COc1ccc(OC)c(-c2cnc(NC(=O)c3snnc3C)cn2)c1 [Compound 119, 4-Methyl-[1,2,3]thiadiazole-5-carboxylic acid [5-(2,5-dimethoxy-phenyl)-pyrazin-2-yl]-amide]",302 nM
2,"O=C(Nc1ccc(-c2cc(C(F)(F)F)ccc2Cl)nn1)c1c(F)cccc1F [Compound 60, N-[6-(2-Chloro-5-trifluoromethyl-phenyl)-pyridazin-3-yl]-2,6-difluoro-benzamide]",> 1000 nM
3,"COc1ccc(OC)c(-c2cnc(NC(=O)c3ccncc3F)cn2)c1 [Compound 113, N-[5-(2,5-Dimethoxy-phenyl)-pyrazin-2-yl]-3-fluoro-isonicotinamide]",207 nM
4,"COc1ccc(OC)c(-c2cnc(NC(=O)C3CCCCC3)cn2)c1 [Compound 120, Cyclohexanecarboxylic acid [5-(2,5-dimethoxy-phenyl)-pyrazin-2-yl]-amide]",352 nM
5,"O=C(Nc1cnc(-c2cc(C(F)(F)F)ccc2Cl)cn1)c1c(F)cccc1F [Compound 1, N-[5-(2-Chloro-5-trifluoromethyl-phenyl)-pyrazin-2-yl]-2,6-difluoro-benzamide]",2 nM
6,"Cc1ncccc1C(=O)Nc1cnc(-c2cc(C(F)(F)F)ccc2Cl)cn1 [Compound 111, N-[5-(2-Chloro-5-trifluoromethyl-phenyl)-pyrazin-2-yl]-2-methyl-nicotinamide]",133 nM
7,"O=C(Nc1cnc(-c2cc(C(F)(F)F)ccc2Cl)nc1)c1c(F)cccc1F [Compound 122, N-[2-(2-Chloro-5-trifluoromethyl-phenyl)-pyrimidin-5-yl]-2,6-difluoro-benzamide]",654 nM
8,"COc1ccc(OC)c(-c2cnc(NC(=O)c3ccncc3C)cn2)c1 [Compound 117, N-[5-(2,5-Dimethoxy-phenyl)-pyrazin-2-yl]-3-methyl-isonicotinamide]",145 nM

# Further lines, results first:
row,IC50,Structure (SMILES)
1,55 nM,"Cc1ccc(-c2ncco2)cc1-c1cnc(NC(=O)c2snnc2C)cn1 [Compound 64, 4-Methyl-[1,2,3]thiadiazole-5-carboxylic acid [5-(2-methyl-5-oxazol-2-yl-phenyl)-pyrazin-2-yl]-amide]"
2,32.2 nM,"Cc1cnccc1C(=O)Nc1cnc(-c2cc(-c3ncco3)ccc2C)cn1 [Compound 62, 3-Methyl-N-[5-(2-methyl-5-oxazol-2-yl-phenyl)-pyrazin-2-yl]-isonicotinamide]"
3,118 nM,"O=C(Nc1ncc(-c2cc(C(F)(F)F)ccc2Cl)cn1)c1c(F)cccc1F [Compound 116, N-[5-(2-Chloro-5-trifluoromethyl-phenyl)-pyrimidin-2-yl]-2,6-difluoro-benzamide]"
4,115 nM,"O=C(Nc1cnc(-c2cc(C(F)(F)F)ccc2Cl)cn1)c1ccncc1F [Compound 2, N-[5-(2-Chloro-5-trifluoromethyl-phenyl)-pyrazin-2-yl]-3-fluoro-isonicotinamide]"
5,34 nM,"COc1ccc(OC)c(-c2cnc(NC(=O)c3c(F)cncc3F)cn2)c1 [Compound 118, N-[5-(2,5-Dimethoxy-phenyl)-pyrazin-2-yl]-3,5-difluoro-isonicotinamide]"
6,38.5 nM,"Cc1ccc(-c2ncco2)cc1-c1cnc(NC(=O)C2CCCCC2)cn1 [Compound 121, Cyclohexanecarboxylic acid [5-(2-methyl-5-oxazol-2-yl-phenyl)-pyrazin-2-yl]-amide]"
7,15.7 nM,"COc1ccc(OC)c(-c2cnc(NC(=O)c3c(F)cccc3F)cn2)c1 [Compound 110, N-[5-(2,5-Dimethoxy-phenyl)-pyrazin-2-yl]-2,6-difluoro-benzamide]"
8,61.6 nM,"Cc1nnsc1C(=O)Nc1cnc(-c2cc(C(F)(F)F)ccc2Cl)cn1 [Compound 114, 4-Methyl-[1,2,3]thiadiazole-5-carboxylic acid [5-(2-chloro-5-trifluoromethyl-phenyl)-pyrazin-2-yl]-amide]"
9,18.5 nM,"Cc1ccc(-c2ncco2)cc1-c1cnc(NC(=O)c2c(F)cncc2F)cn1 [Compound 63, 3,5-Difluoro-N-[5-(2-methyl-5-oxazol-2-yl-phenyl)-pyrazin-2-yl]-isonicotinamide]"
10,4.1 nM,"O=C(Nc1cnc(-c2cc(C(F)(F)F)ccc2Cl)cn1)c1c(F)cncc1F [Compound 115, N-[5-(2-Chloro-5-trifluoromethyl-phenyl)-pyrazin-2-yl]-3,5-difluoro-isonicotinamide]"
11,22.3 nM,"O=C(Nc1cnc(-c2cc(C(F)(F)F)ccc2Cl)cn1)C1CCCCC1 [Compound 112, Cyclohexanecarboxylic acid [5-(2-chloro-5-trifluoromethyl-phenyl)-pyrazin-2-yl]-amide]"
12,50.5 nM,"Cc1ccc(-c2ncco2)cc1-c1cnc(NC(=O)c2ccncc2F)cn1 [Compound 61, 3-Fluoro-N-[5-(2-methyl-5-oxazol-2-yl-phenyl)-pyrazin-2-yl]-isonicotinamide]"
13,49.2 nM,"COC(=O)c1ccc(C)c(-c2cnc(NC(=O)c3ccncc3F)cn2)c1 [Compound 109, 3-{5-[(3-Fluoro-pyridine-4-carbonyl)-amino]-pyrazin-2-yl}-4-methyl-benzoic acid methyl ester]"
